Test results reported in patent US20140105837A1, “NOVEL ARYL C-XYLOSIDE COMPOUNDS, AND COSMETIC USE” (L'OREAL, priority 2008, published 2014).

Legend:
Assay type in all cases: cell-based
[1] = system: keratinocytes; assay: Sulfated glycosaminoglycan synthesis on keratinocytes (35S-sulfate radioactive label incorporation); details: for % glycosaminoglycan synthesis relative to the control: control = 100; for Mean value (incorporated radioactivity, sulfated GAGs): n=3
Method: (§1) Study of the effect of C-glycoside derivatives on sulfated glycosaminoglycan synthesis on fibroblasts and on keratinocytes:
(§2) The study is carried out by measuring the incorporation of radioactive glucosamine into the matrix neosynthesized by cultures of normal human dermal fibroblasts or by keratinocytes. The incorporation of radioactive glucosamine indicates specific neosynthesis of glycosaminoglycans via an incorporation of the acetylated form of this glucosamine.
The keratinocyte cultures are performed in keratinocyte-SFM medium sold by the company Gibco, in the presence of EGF (Epidermal Growth Factor) (0.25 ng/ml), of pituitary extract (25 μg/ml) and of gentamycin (25 μg/ml).
The fibroblasts and the keratinocytes were cultured in 96-well plates. At confluence, the culture medium was replaced with suitable culture medium containing or not containing (control) the test compound or the reference, and then the cells were incubated for 48 hours. The 35S-sulfate radioactive label was added (40 μCi final concentration) and the cells were incubated for a further 24 hours. […]
(§3) The extracellular matrix glycosaminoglycans were extracted with one volume of chaotropic buffer (50 mM Tris/HCl, 4 M guanidine, 5 mM, EDTA, pH 8.0). The sulfated GAGs were purified by ion exchange chromatography: absorption of the anionic molecules onto Q-Sepharose beads under high-stringency conditions, desorption of the molecules which are not very anionic and molecules which are moderately anionic, with a 6 M urea solution containing […] NaCl, and then washing.
(§4) The radioactivity incorporated into the highly […] molecules that have remained on the support (predominantly GAGs) was measured by liquid scintillation.
(§5) The results are evaluated relative to a control consisting of cells which have not been treated with a compound of formula (I).
A positive control (CaCl2 at 1.4 mM) known to stimulate GAG synthesis is introduced into the test carried out on keratinocytes, as a positive reference.
(§6) The results are expressed as percentage variation in glycosaminoglycan synthesis relative to the control.

[2] = system: normal human dermal fibroblasts; assay: Sulfated glycosaminoglycan synthesis on fibroblasts (35S-sulfate radioactive label incorporation); details: for % glycosaminoglycan synthesis relative to the control / Mean value (incorporated radioactivity, sulfated GAGs): fibroblasts; for % glycosaminoglycan synthesis relative to the control: control = 100; for Mean value (incorporated radioactivity, sulfated GAGs): n=3; for Effectiveness for increasing sulfated GAG synthesis (in words): summary of the tests on fibroblasts and keratinocytes
Method: as §1, §2
The fibroblast cultures are performed according to conventional cell culture methods, namely in DMEM medium sold by the company Gibco, in the presence of L-glutamine (2 mM), of penicillin (50 IU/ml) and of 10% of fetal calf serum (Gibco).
The fibroblasts and the keratinocytes were cultured in 96-well plates. At confluence, the culture medium was replaced with suitable culture medium containing or not containing (control) the test compound or the reference, and then the cells were incubated for 48 hours. The 35S-sulfate radioactive label was added (40 μCi final concentration) and the cells were incubated for a further 24 hours. All the conditions were carried out 3 times.
as §3, §4, §5
A positive control (TGFβ at 10 ng/ml) known to stimulate GAG synthesis is introduced into the test carried out on fibroblasts, as a positive reference.
as §6

[3] = system: keratinocytes; assay: Sulfated glycosaminoglycan synthesis on keratinocytes (35S-sulfate radioactive label incorporation); details: other experimental plan, n=2
[4] = system: normal human dermal fibroblasts; assay: Sulfated glycosaminoglycan synthesis on fibroblasts (35S-sulfate radioactive label incorporation); details: other experimental plan, n=2
[5] = 0.1 mM, other experimental plan

[Ca+2].[Cl-].[Cl-] [CaCl2, reference compound]
% glycosaminoglycan synthesis relative to the control ([1]; CaCl2 at 1.4 mM): 117% | Mean value (incorporated radioactivity, sulfated GAGs) ([1]; CaCl2 at 1.4 mM): 5273 cpm

COc1cc(CCC(O)CC2OC[C@@H](O)[C@H](O)[C@H]2O)ccc1O (stereo partly drawn) [Compound 1, 1-(α,β)-D-xyopyranosyl-4-(4-hydroxy-3-methoxyphenyl)butan-2-ol]
% glycosaminoglycan synthesis relative to the control ([2]; 40 μM): 351% | Mean value (incorporated radioactivity, sulfated GAGs) ([2]; 40 μM): 8130 cpm | % glycosaminoglycan synthesis relative to the control ([2]; 120 μM): 657% | Mean value (incorporated radioactivity, sulfated GAGs) ([2]; 120 μM): 15318 cpm | Effectiveness for increasing sulfated GAG synthesis (in words) [2]: highly effective | Effectiveness for increasing sulfated GAG synthesis (in words) ([2]; listed as example 2): very effective | % glycosaminoglycan synthesis relative to the control ([1]; 0.37 mM): 707% | Mean value (incorporated radioactivity, sulfated GAGs) ([1]; 0.37 mM): 31999 cpm | % glycosaminoglycan synthesis relative to the control ([1]; 1.1 mM): 813% | Mean value (incorporated radioactivity, sulfated GAGs) ([1]; 1.1 mM): 36795 cpm

Oc1ccccc1CCC(O)CC1OC[C@@H](O)[C@H](O)[C@H]1O (stereo partly drawn) [Compound 8, 1-(α,β)-D-xylopyranosyl-4-(2-hydroxyphenyl)butan-2-ol]
% glycosaminoglycan synthesis relative to the control [2, 5]: 117% | % glycosaminoglycan synthesis relative to the control ([2]; 1 mM, other experimental plan): 412% | Effectiveness for increasing sulfated GAG synthesis (in words) [2]: highly effective | Mean value (incorporated radioactivity, sulfated GAGs) ([3]; 0.1 mM): 40552 cpm | Mean value (incorporated radioactivity, sulfated GAGs) ([3]; 1 mM): 85456 cpm | Mean value (incorporated radioactivity, sulfated GAGs) ([4]; 0.1 mM): 2938 cpm | Mean value (incorporated radioactivity, sulfated GAGs) ([4]; 1 mM): 10371 cpm | % glycosaminoglycan synthesis relative to the control [1, 5]: 316% | % glycosaminoglycan synthesis relative to the control ([1]; 1 mM, other experimental plan): 665%

OC(CCc1ccccc1)CC1OC[C@@H](O)[C@H](O)[C@H]1O (stereo partly drawn) [Compound 9, 1-(α,β)-D-xylopyranosyl-4-phenylbutan-2-ol]
% glycosaminoglycan synthesis relative to the control [2, 5]: 430% | % glycosaminoglycan synthesis relative to the control ([2]; 1 mM, other experimental plan): 938% | Effectiveness for increasing sulfated GAG synthesis (in words) [2]: highly effective | Mean value (incorporated radioactivity, sulfated GAGs) ([3]; 0.1 μM): 24106 cpm | Mean value (incorporated radioactivity, sulfated GAGs) ([3]; 1 μM): 99041 cpm | Mean value (incorporated radioactivity, sulfated GAGs) ([4]; 0.1 mM): 10838 cpm | Mean value (incorporated radioactivity, sulfated GAGs) ([4]; 1 mM): 23620 cpm | % glycosaminoglycan synthesis relative to the control ([1]; 0.1 μM, other experimental plan): 563% | % glycosaminoglycan synthesis relative to the control ([1]; 1 μM, other experimental plan): 547%

TGFβ: positive control known to stimulate GAG synthesis, used at 10 ng/ml on fibroblasts [reference compound]
% glycosaminoglycan synthesis relative to the control ([2]; TGFβ at 10 ng/ml): 174% | Mean value (incorporated radioactivity, sulfated GAGs) ([2]; TGFβ at 10 ng/ml): 4062 cpm
